Assay results from ChEMBL document CHEMBL5370538, “Discovery of novel 6-p-tolyl-3-(3,4,5-trimethoxybenzyl)-7H-[1,2,4]triazolo[3,4-b][1,3,4]thiadiazine derivative as a potent tubulin inhibitor with promising in vivo antitumor activity” (Eur J Med Chem, 2023).
Calls of active or inactive are those of the source. The calls are words filed in the database; no cut-off is given here.

What was measured:
HeLa [1] = experiment: Induction of apoptosis in human HeLa cells assessed as late apoptotic cells at 0.06 uM incubated for 24 hrs Annexin V-FITC/PI staining based flow cytometry analysis (Rvb= 2.13 %); assay type: functional
HeLa [2] = experiment: Induction of apoptosis in human HeLa cells assessed as viable cells at 0.03 uM incubated for 24 hrs Annexin V-FITC/PI staining based flow cytometry analysis (Rvb= 95.9 %); assay type: functional; settings: read-out: Activity
HeLa [3] = experiment: Induction of apoptosis in human HeLa cells assessed as early apoptotic cells at 0.12 uM incubated for 24 hrs Annexin V-FITC/PI staining based flow cytometry analysis (Rvb= 1.85 %); assay type: functional
[4] = Antiproliferative activity against human HEK293 cells assessed as cell growth inhibition incubated for 48 hrs by MTT assay; assay type: toxicity, cell-based
HeLa [5] = experiment: Induction of cell cycle arrest in human HeLa cells assessed as accumulation of cells at G2/M phase at 0.06 uM incubated for 24 hrs by propidium iodide staining based flow cytometry (reference value: 17.38 %); assay type: functional
HeLa [6] = experiment: Induction of apoptosis in human HeLa cells assessed as viable cells at 0.12 uM incubated for 24 hrs Annexin V-FITC/PI staining based flow cytometry analysis (Rvb= 95.9 %); assay type: functional; settings: read-out: Activity
A549 [7] = experiment: Antitumor activity against human A549 cells xenografted in Balb/c mouse assessed as inhibition of tumor weight at 60 mg/kg,ip administrated for 7 days; assay type: functional, organism-based; settings: time 7.0 day
[8] = Clearance in Sprague-Dawley rat at 10 mg/kg,po measured upto 24 hrs by LC-MS/MS analysis; assay type: ADME, organism-based; settings: in vivo
HeLa [9] = experiment: Antiproliferative activity against human HeLa cells assessed as cell growth inhibition incubated for 48 hrs by MTT assay; assay type: functional, cell-based
HeLa [10] = experiment: Induction of cell cycle arrest in human HeLa cells assessed as accumulation of cells at G2/M phase at 0.12 uM incubated for 24 hrs by propidium iodide staining based flow cytometry (reference value: 17.38 %); assay type: functional
[11] = Cmax in Sprague-Dawley rat at 10 mg/kg,po measured upto 24 hrs by LC-MS/MS analysis; assay type: ADME, organism-based; set-up: time < 24 hrs, dose 10 mg/kg, route po; settings: in vivo
A549 [12] = experiment: Antiproliferative activity against human A549 cells assessed as cell growth inhibition incubated for 48 hrs by MTT assay; assay type: functional, cell-based; settings: A549, 48 h
MDA-MB-231 = experiment: Antiproliferative activity against human MDA-MB-231 cells assessed as cell growth inhibition incubated for 48 hrs by MTT assay; assay type: functional, cell-based; settings: MDA-MB-231, 48 h
Tubulin = experiment: Inhibition of tubulin polymerization (unknown origin) measured for 20 mins in presence of GTP by spectrophotometry analysis; assay type: protein-complex assay, Homo sapiens
HeLa [13] = experiment: Induction of apoptosis in human HeLa cells assessed as late apoptotic cells at 0.03 uM incubated for 24 hrs Annexin V-FITC/PI staining based flow cytometry analysis (Rvb= 2.13 %); assay type: functional

**Q.** For `COc1cc(Cc2nnc3n2N=C(c2ccc(C)cc2)CS3)cc(OC)c1OC`, which Activity (HeLa [1]) is on record?
**A.** The Activity was 7.44%.

**Q.** And the viability at 0.03 µM (HeLa [2])?
**A.** The viability at 0.03 µM was 76%.

**Q.** And the Activity (HeLa [3])?
**A.** Its Activity is 24%.

**Q.** What about the IC50 at 48 h [4] of the same compound?
**A.** The IC50 at 48 h was greater than 100 µM.

**Q.** What about the Activity (HeLa [5]) of the same compound?
**A.** The Activity was 69.71%.

**Q.** What about the viability at 0.12 µM (HeLa [6]) of the same compound?
**A.** The viability at 0.12 µM was 65.2%.

**Q.** And the Activity (A549 [7])?
**A.** The Activity was “Active”.

**Q.** And the CL/F [8]?
**A.** Its CL/F is 2180 mL/min/kg.

**Q.** And the IC50 (HeLa [9])?
**A.** The IC50 was 0.046 µM.

**Q.** And the Activity (HeLa [10])?
**A.** Its Activity is 91.09%.

**Q.** What about the Cmax [11] of the same compound?
**A.** Its Cmax is 28.4 ng/mL.

**Q.** And the IC50 (A549 [12])?
**A.** Its IC50 is 0.96 µM.

**Q.** And the IC50 (MDA-MB-231)?
**A.** Its IC50 is 1.89 µM.

**Q.** What about the IC50 (Tubulin) of the same compound?
**A.** The IC50 was 11.2 µM.

**Q.** What about the Activity (HeLa [13]) of the same compound?
**A.** Its Activity is 4.9%.
